{"source": "patent US5663197A", "about": "“2-(1-hydroxyethyl)-5-hydroxynaphtho[2,3-b]furan-4,9-dione and antitumor agents comprising this compound” (priority 1992, dated 1997)", "key": {"[1]": {"test_system": "Normal human N6KA fibroblasts", "experiment": "In vitro growth test on normal cells, N6KA fibroblasts", "format": "cell-based", "description": "(§1) An appropriate amount of NFD was dissolved in DMSO to give a 1.0 mg/ml stock solution, which was diluted as necessary before use.\n(§2) The following cells in the late logarithmic phase were harvested after treatment with trypsin (containing 0.25% trypsin and 0.02% EDTA; 37° C., 3 min) and used in the test: human lung adenocarcinoma cell lines A-549, VMRC-LCD and SK-LU-1, human lung squamous cell carcinoma Calu-1 cells, human colon adenocarcinoma WiDr cells, human prostate cancer LNCaP cells, human vaginal squamous cell carcinoma A-431 cells, human cervical carcinoma HeLa cells, human cholangiocarcinoma HuCC-T1 cells, mouse skin cancer melanoma B16 (M4) cells, human pancreatic carcinoma ASPC-1 cells, human neuroblastoma IMR-132 cells, human lung small cell carcinoma SCCH-194 cells, human uninary bladder carcinoma T24 cells, human renal cell carcinoma […] cells, human gastric cancer NUGC-2 cells, human thyroid carcinoma 8305C cells, human hepatoma HUH-7 cells, human ovarian carcinoma TYK-nu cells and human chorio carcinoma BeWo cells. […] These cells were plated onto a 96-well microplate at a density of 5-10×10^3 cells/cm^2 using DMEM or RPMI-1640 medium containing 10% fetal bovine serum and cultured for 24 hours in a conventional manner, after which a pre-determined amount of NFD dissolved in DMSO was added to each well. […]"}, "[2]": {"test_system": "lung adenomas in mice", "experiment": "Inhibition of two-step carcinogenesis in mouse lungs", "format": "in vivo, mouse (female ICR)", "description": "Female ICR mice were used as test animals. Fifteen mice were housed in a cage and provided with the pellet diet and drinking water ad libitum. After one week of preliminary rearing, the six-week-old mice were given in the back a subcutaneous injection of 10 mg/kg body weight of 4-nitroquinoline-N-oxide (4NQO) dissolved in a mixture of olive oil and cholesterol (20:1). From five weeks after initiation, the mice were allowed to orally take 8% glycerol ad libitum as a carcinogenic promoter. The mice which received 4 NQO and 8% glycerol for 25 weeks served as a positive control. On the other hand, the mice in the test group were given ad libitum 8% glycerol containing 0.1 ng/ml of NFD for 25 weeks. Thirty weeks after the onset of the experiment, the mice were killed by cervical dislocation, and the lungs were removed after fixation with formalin under autopsy. Under a stereomicroscope, the adenomas formed in the lung were observed, and the number of adenomas was determined. The numbers were compared between the positive control and NFD-administered groups."}, "[3]": {"test_system": "Human gastric cancer NUGC-2 cells", "experiment": "In vitro antitumor test (trypan blue exclusion viable cell count), NUGC-2", "format": "cell-based", "description": "as §1, §2"}, "[4]": {"test_system": "Human vaginal squamous cell carcinoma A-431 cells", "experiment": "In vitro antitumor test (trypan blue exclusion viable cell count), A-431", "format": "cell-based", "description": "as §1, §2"}, "[5]": {"test_system": "Human pancreatic carcinoma ASPC-1 cells", "experiment": "In vitro antitumor test (trypan blue exclusion viable cell count), ASPC-1", "format": "cell-based", "description": "as §1, §2"}, "[6]": {"test_system": "Human lung adenocarcinoma VMRC-LCD cells", "experiment": "In vitro antitumor test (trypan blue exclusion viable cell count), VMRC-LCD", "format": "cell-based", "conditions": "72 h, three days exposure, read-out: LD50 (IC50), 50% growth-inhibitory dose", "description": "as §1, §2"}, "[7]": {"test_system": "Human lung small cell carcinoma SCCH-194 cells", "experiment": "In vitro antitumor test (trypan blue exclusion viable cell count), SCCH-194", "format": "cell-based", "description": "as §1, §2"}}, "data": [{"compound": "CC(O)c1cc2c(o1)C(=O)c1cccc(O)c1C2=O", "note": "(stereo not shown) [NFD, 2-(1-hydroxyethyl)-5-hydroxynaphtho[2,3-b]furan-4,9-dione]", "values": [{"measurement": "adverse effects on growth of normal cells", "setting": "[1]; FIG. 24, at concentrations which cause necrosis in tumor cells", "value": "no adverse effects"}, {"measurement": "IC50", "setting": "[1]; Homo sapiens, Fibroblast, 72 h, N6KA normal fibroblasts, three days exposure, read-out: LD50 (IC50), 50% growth-inhibitory dose", "value": 0.084, "unit": "µg/mL"}, {"measurement": "inhibition of adenoma formation in the lung", "setting": "[2]; 0.1 ng/ml NFD in 8% glycerol, versus positive control", "value": "significant inhibition"}, {"measurement": "expression percentage of lung adenomas, lower than that in the positive control group", "setting": "[2]; 30th week after onset, versus 4NQO + 8% glycerol group", "value": "1/3"}, {"measurement": "IC50", "setting": "[3]; 72 h, NUGC-2, three days exposure, read-out: LD50 (IC50), 50% growth-inhibitory dose", "value": 0.017, "unit": "µg/mL"}, {"measurement": "IC (almost complete)", "setting": "[3]; FIG. 18, read-out: concentration inhibiting cells almost completely", "value": 0.033, "unit": "µg/mL"}, {"measurement": "IC50", "setting": "[4]; 72 h, three days exposure, read-out: LD50 (IC50), 50% growth-inhibitory dose", "value": 0.021, "unit": "µg/mL"}, {"measurement": "IC (almost complete)", "setting": "[4]; FIG. 7, read-out: concentration inhibiting growth almost completely", "value": 0.0279, "unit": "µg/mL"}, {"measurement": "IC50", "setting": "[5]; ASPC1, 72 h, ASPC-1, three days exposure, read-out: LD50 (IC50), 50% growth-inhibitory dose", "value": 0.017, "unit": "µg/mL"}, {"measurement": "IC (almost complete)", "setting": "[5]; ASPC1, FIG. 13, read-out: concentration inhibiting growth almost completely", "value": 0.0335, "unit": "µg/mL"}, {"measurement": "IC50", "setting": "[6]", "value": 0.013, "unit": "µg/mL"}, {"measurement": "IC50", "setting": "[7]; 72 h, SCCH-194, three days exposure, read-out: LD50 (IC50), 50% growth-inhibitory dose", "value": 0.01, "unit": "µg/mL"}, {"measurement": "IC (almost complete)", "setting": "[7]; FIG. 15, read-out: concentration inhibiting growth almost completely", "value": 0.03, "unit": "µg/mL"}]}]}
